By melting point is commonly meant the temperature, or range, at which the solid turns liquid.

The results in this text go back to a melting point compilation (Tetko et al.; mined from patent text by program, amines drawn as free bases though some values may be those of a salt).

In the case of `Cc1c(-c2ncc(Cl)cc2F)nn(C)c1C#N`, the melting point lay within 144 to 146 °C. For `CCC(CC)Cn1c(=O)c(=O)[nH]c2cc([N+](=O)[O-])c(-n3cccc3)cc21`, the melting point was in the range of 154 to 155 °C.

With `Cc1oc(-c2ccco2)nc1COc1ccc(COc2nn(Cc3ccccc3)cc2CO)cc1Cl`, the melting point was 119 to 120 °C.

`COc1ccc2c(c1OC)CC=C2c1c[nH]cn1` gave a melting point of 150 °C.

Molecule `CCOc1ccc2c(c1)CC(=O)c1cc(C(C)C(N)=O)ccc1S2` (configuration not stated) had a melting point of 128 to 130 °C. In turn, `COC(=O)c1c(C)nc(C)c(C(=O)OCC2CCCO2)c1-c1cccc(O)c1` (configuration not stated) came in with a melting point of 95 to 97 °C. `Cc1cccc2c1N(CC(=O)c1cccc([N+](=O)[O-])c1)C(=O)C(NC(=O)Nc1cccc(-c3nnn[nH]3)c1)N=C2c1ccccc1F` (configuration not stated): the melting point lay within 194 to 198 °C.

Take `Cc1nc2cc(O)c(C)cc2o1`: the melting point was 198 to 200 °C. In the case of `O=C1CCC(N2Cc3c(CNC(=O)Nc4ccc(Cl)c(Cl)c4)cccc3C2=O)C(=O)N1` (configuration not stated), the melting point was in the range of 253 to 255 °C. To `COCCN(CCC12CC3CC(CC(C3)C1)C2)C(=O)NCCCc1ccncc1` belongs 102 to 104 °C; to `Cc1ccc2[nH]c(=O)n(CCCN3CCN(C(c4ccccc4)c4ccccc4)CC3)c2c1`, 196 °C. To `CC(C)(C)OC(=O)Nc1nc2cc(NC(=O)C(=O)N3CCC(Cc4ccccc4)CC3)ccc2[nH]1` belongs 192 °C. In turn, `C1=CC2=C(CCCC2)n2c3c(c4cnccc42)CCC=C13` displayed a melting point of 134 to 137 °C. Turning to `CCCCCS(=O)(=O)NC(=O)CCc1cc(OCCOC)nn1Cc1ccc(Cl)cc1Cl`, the melting point fell in the range of 108 to 112 °C.

Take `CCC(C)NS(=O)(=O)c1ccc(N)c(C(=O)N2CCN(C)CC2)c1` (configuration not stated): the melting point was 130 to 132 °C. Molecule `CC(C)n1nc(-c2cnc(N)nc2-c2cccc(Cl)c2)ccc1=O` returned a melting point of 236 to 237 °C. As for `CCn1cc(C(=O)O)c(=O)c2cc(Cl)c(N3CCN(C)CC3)cc21`, the melting point is 260 °C.

`Cc1ccc(N2C(=O)c3nccnc3C2=O)nc1` yielded a melting point of 240 °C.

Molecule `CN1C(=O)C(C)(C)N=C(c2ccccc2F)c2c(Cl)c(N)c(Cl)c(Cl)c21` registered a melting point of 165 to 166 °C. The molecule `O=C(O)c1cnn(-c2ccc(F)cc2)c1Cl` gave a melting point of 230 to 231 °C.

For `N=C(N)c1cccc(S(=O)(=O)c2ccc(OC[C@@H]3C[C@@H](CC(=O)O)C(=O)N3CCCc3ccccc3)cc2)c1`, the melting point lay within 205 to 207 °C. `COC(=O)c1ncc(C(=O)O)c2ccccc12` registered a melting point of 189 °C. Next, `CCCc1c(OCCCCCc2c(Cl)c(Cl)c(Cl)c(OC)c2OC)ccc(C(=O)OC)c1O`: 84 to 87 °C; `CCCCCCCc1ccc(C(=O)Oc2ccc(C(=O)O)c(Cl)c2)cc1`: 108 °C; `COc1ccc(-c2cc(O)nc(Nc3ccc(OC)c(Cl)c3)n2)cc1`: 292 to 294 °C. `CCCCCCCCCCCCCCCCO[C@@H]1CCCO[C@H]1COP(=O)([O-])OCC[N+](C)(C)C` (relative stereo): the melting point lay within 85 to 92 °C. To `CCOC(=O)COc1c(Cl)c(Cl)c2c(-c3ccccc3F)noc2c1Cl` belongs 140 to 143 °C. Take `O=C(O)C1CC(=O)N(c2ccc(O)cc2)C1` (configuration not stated): the melting point fell in the range of 201 to 204 °C.

Molecule `CC1=C(C(=O)OCCC#N)C(c2ccccc2Cl)C(c2nnco2)=C(C)N1` (configuration not stated) had a melting point of 180 to 182 °C. To `COc1ccc(Cn2nc3oc(=O)cc(C)c3c2C)cc1` belongs 169 to 172 °C. In the case of `CCCCCCCCC(=O)COS(=O)(=O)c1c(C)c(C)cc(C)c1C`, the melting point is 36 to 37.5 °C. Turning to `CCN(CC)Cc1cc(C(N)=O)cc(Br)c1N`, the melting point was 140 to 142 °C. In turn, `CSc1cccc(Cc2sc(NC(C)=O)nc2CO)c1` had a melting point of 140 to 142 °C. Take `Cc1cc([N+](=O)[O-])c(NC(C)C)c([N+](=O)[O-])c1NC(C)C`: the melting point fell in the range of 96 to 97 °C. As for `c1ccc(CN2CCC3(CC2)SCCS3)cc1`, the melting point lay within 51 to 53 °C. `CCCCNS(=O)(=O)C[C@@H](O)C(O)[C@@H](CC1CCCCC1)NC(=O)[C@H](CC(C)C)NC(=O)OCc1ccccc1` (relative stereo) showed a melting point of 50 to 70 °C. `CCOC(=O)NC(=S)C1=C(N2CCOCC2)CCC1` showed a melting point of 114 to 118 °C. On to `CCOC(=O)C1=C(C)NC(C)=C(C(=O)OCC)C1c1ccccc1Cl`, for which the melting point was in the range of 120 to 121 °C. Next, `CCN1CCNC(=O)C1c1ccc(Nc2nc(-c3ccc(F)c(NC(=O)c4cc5c(s4)CCCC5)c3C)cn(C)c2=O)cc1` (configuration not stated): 179 to 180 °C. As to `O=c1ccc2c(-c3cccc([N+](=O)[O-])c3)nccc2[nH]1`, the melting point is over 300 °C. On to `CNc1nc2ccc(CCc3ccccn3)cc2s1`, for which the melting point was 118 to 120 °C. To `Cc1ccc(-c2c(NS(=O)(=O)c3ccc(C(C)(C)C)cc3)ncnc2OCCOc2ncc(C#CC(C)(C)O)cn2)cc1` belongs 172 to 174 °C; to `N#CCCc1cccc2ccn(Cc3cccc(/C=C/c4ccc5ccc(Cl)cc5n4)c3)c12`, 151 °C. Next, `Cc1nc(-n2c(=O)ccc3cc(OCc4ccccc4)ccc32)sc1C(=O)NCc1ccccc1`: 213 to 216 °C; `COc1ccc(C(F)(F)F)cc1Nc1cccn2nc(Cl)nc12`: 144 to 146 °C; `Cn1ccnc1Sc1ccc(Nc2c(C#N)cnc3cc(/C=C/CCOC4CCCCO4)ccc23)cc1Cl` (configuration not stated): 217 to 220 °C.

For `COc1ccc(-c2cc(=O)n(CC(C)C)nc2-c2ccc(OC)c(F)c2)cc1F`, the melting point came to 154 °C. To `CC(C)Sc1nc(C(F)(F)F)c(I)c(=O)[nH]1` belongs 212 to 215 °C; to `CCCCCCCCCCCCCCCCC(CO)C(=O)O` (configuration not stated), 62 to 67 °C; to `O=C(O)CCc1ccc(NC(=O)C(COC2CCCCO2)NS(=O)(=O)c2ccc(Cl)cc2)cc1` (racemic), 150 to 151 °C.

The molecule `O=C1c2cccc3cc(F)cc(c23)C(=O)N1O` registered a melting point of 244 to 247 °C.

With `CCOc1cc(C(CS(C)(=O)=O)N2C(=O)c3cccc(NC(=O)COCc4ccccc4)c3C2=O)ccc1OC` (configuration not stated), the melting point fell in the range of 154 to 156 °C. For the molecule `CC(C)C(=O)Nc1ccc(C(=O)O)cc1N`, the melting point lay in the range of 159 to 160 °C. `CCOC(=O)C(=O)NNC(=O)c1ccc(OCC)cc1`: the melting point is 126 °C. To `CNC(=O)N1CC(Oc2ccc(Cl)cc2)C1` belongs 144 to 145 °C; to `CC(=O)SCC(Cc1ccccc1)C(=O)Nc1ccc(C)c(C(=O)O)c1C` (configuration not stated), 187 to 189 °C.

Molecule `CC(=O)NCC=C1CCc2ccc3nn(C)cc3c21` came in with a melting point of 200 to 202 °C. Next, `CCc1nnc(-c2ccc(-c3ccccc3)cc2)n1-c1cccc2cnccc12`: 228 to 230 °C; `CN1CCc2cc(O)c(O)c(SCc3ccco3)c2CC1`: 162 to 165 °C. Next, `O=C(O)CC(C(=O)O)C(=O)O`: 157 to 159 °C; `COc1cc(N)c(Cl)cc1C(=O)NCC1CCN(CCCCCC(=O)c2cccs2)CC1`: 115 to 118 °C. As to `Cc1nc(OCCCCn2cncn2)c([N+](=O)[O-])c(N2CCc3ccccc3CC2)n1`, the melting point lay in the range of 88 to 91 °C.
